Measured values published in US20220243230A1, “BIOCONVERSION OF 4-COUMARIC ACID TO RESVERATROL” (Conagen Inc., priority 2022, published 2022).

System: yeast cultures
Test: effect of 4-coumaric acid at different concentrations on yeast cultures
Assay type: cell-based, S. cerevisiae
Details: strains CNFS109 and CNFS110, 48 hours, 30 °C, FIG. 1
Method: The strains of Example 1 were tested in microcultures with 500 mg/L of 4-coumaric acid fed 24 hours post inoculation. CNFS109 and CNFS110 were inoculated into 50 ml of synthetic drop out medium without uracil (Sigma-Aldrich, St. Louis, Missouri) and incubated overnight under shaking conditions. Saturated culture was dispensed into individual wells in 24 well plates that contained 2 ml of synthetic drop out medium without uracil. 4-coumaric acid dissolved in acidified ethanol (20 g/L stock, in ethanol : water : HCl=50:49:1) was added to each well, to form media having 4-coumaric concentrations of 0 mg/L, 100 mg/L, 500 mg/L, 1000 mg/L, and 2000 mg/L, respectively. All experiments were performed in triplicate. The cultures were incubated under shaking for 48 hours (250 rpm, 30 ° C.).
The bar graph of FIG. 1 illustrates the effect of 4-coumaric acid at different concentrations on yeast cultures. […] Due to the toxicity associated with high concentrations of 4-coumaric acid which inhibited yeast from growing and metabolizing, resveratrol bioconversion was only observed when 4-coumaric was added to the yeast culture at relatively lower concentrations (FIG. 2).

O=C(O)/C=C/c1ccc(O)cc1 [4-coumaric acid]
survival rate of yeast culture (1 g/L or 2 g/L added to the culture): declined | impact due to 4-coumaric acid toxicity on yeast cultures (concentration of up to 500 mg/L): little or no impact
